Assays:
[1] = test system: male CD1 mice; assay: Predictive sedation-hypnosis test in mice (motor activity, crossings); assay type: in vivo; details: single equimolecular intraperitoneal dose, crossings over 30 min after dosing (first 5 min discarded) versus control
Experimental: • In vivo determination of predictive sedative-hypnotic action.
The in vivo effects of these compounds were assessed by a predictive sedation-hypnosis test in mice (D. J. Sanger et al., Eur. J. Pharmacol., 313, 35-42, 1996; and G. Griebel et al., Psychopharmacology, 146, 205-213, 1999). Groups of 5-8 male CD1 mice, weighing 22-26 g at the time of test, were used. The test compounds were administered in single equimolecular intraperitoneal doses, suspended in 0.25% agar with one drop of Tween in a volume of 10 ml/kg. Control animals received the vehicle alone. Using an Actisystem DAS16 (Panlab, S. L., Spain) the crossings (number of counts) were recorded for each mouse at 5-min intervals during a period of 30 minutes after dosing. The inhibition percentage of crossings of treated animals versus control animals (the first 5 min were discarded) was calculated.

[2] = target: α2-GABAA receptor (Rattus norvegicus, UniProt P18508+P23576); assay: Ligand-binding assay, radiolabeled flumazenil competition, rat spinal cord membranes; details: for inhibition at 10 µM: read-out: % Inhibition (10^−5 M), affinity for α2-GABAA receptor; for inhibition at 0.1 µM: read-out: % Inhibition (10^−7 M), affinity for α2-GABAA receptor
Experimental: Determination of the affinity of test compounds for α1- and α2-GABAA receptor.
Male Sprague-Dawley rats weighing 200-250 g at the time of experiment were used. After decapitation of the animal, the cerebellum (tissue that mostly contains α1-GABAA receptor) and spinal cord (tissue that mostly contains α2-GABAA receptor) were removed. The membranes were prepared according to the method by J. Lameh et al. (Prog. Neuro-Psychopharmacol. Biol. Psychiatry, 24, 979-991, 2000). Once the tissues weighed, they were suspended in 50 mM Tris.HCl (pH 7.7), 1:40 (v/v), homogenized and then centrifuged at 20000 g for 10 min at 7° C. The resulting pellet was resuspended under the same conditions and centrifuged again. The pellet was finally resuspended on a minimum volume and kept at −80° C. overnight. On the next day, the process was repeated until the final pellet was resuspended at a ratio of 1:10 (v/v).
Affinity was determined by competitive tests using radiolabeled flumazenil as ligand. The tests were performed according to the methods described by S. Arbilla et al. (Eur. J. Pharmacol., 130, 257-263, 1986); and Y. Wu et al. (Eur. J. Pharmacol., 278, 125-132, 1995). The membranes containing the study receptors, flumazenil (radiolabeling at a final concentration of 1 nM) and ascending concentrations of test compounds (in a total volume of 500 μl in […] [ph 7.4] Tris.HCl buffer) were incubated. Simultaneously, the membranes were only incubated with the radiolabeled flumazenil (total binding, 100%) and in the presence of an elevated concentration of unradiolabeled flumazenil (non-specific binding, % estimation of radiolabeled ligand). The reactions started on adding the radiolabeled ligand followed by incubation for 60 minutes at 0° C. At the end of the incubation period, the tubes were filtered using a Brandel Mod. M-48R harvester and then washed three times with cold test buffer. The harvester was fitted with a GF/B filter that retained the membranes containing the receptors and the radiolabeled ligand which had been bound to the receptors. Then the filters were removed and left till dry. Once dried, the filters were cut, placed in vials with scintillation liquid and left under stirring overnight. The next day the filters were counted using a Packard Mod. Tricarb scintillation counter.
X: amount of bound ligand for every concentration of compound.
T: total binding, maximum amount bound to the radiolabeled ligand.
N: non-specific binding, amount of radiolabeled ligand bound in a non-specific way irrespective of the receptor used.
Every concentrations of compound were tested in duplicate and their mean values were used to determine the experimental values of % specific binding versus the concentration of compound. […] Inhibition constants (Ki) were calculated from the IC50 values according to Cheng-Prusoff's formula (Y. Cheng y W. H. Prusoff, Biochem. Pharmacol., 22(23), 3099-3108, 1973).

| Compound | % Motor Activity Inhibition [1] | inhibition at 10 µM [2] | inhibition at 0.1 µM [2] |
| --- | --- | --- | --- |
| CN(c1cccc(-c2ccnc3c(C(=O)c4ccc(F)cc4)cnn23)c1)S(C)(=O)=O [Example 51, N-methyl-N-{3-[3-(fluorobenzene-4-carbonyl)-pyrazolo[1,5-a]pyrimidin-7-yl]-phenyl}-methanesulfonamide] | 90.04% | 94.7% | 16.8% |
| CCN(c1cccc(-c2ccnc3c(C(=O)c4ccc(F)cc4)cnn23)c1)S(C)(=O)=O [Example 52, N-ethyl-N-{3-[3-(fluorobenzene-4-carbonyl)-pyrazolo[1,5-a]pyrimidin-7-yl]-phenyl}-methanesulfonamide] | 92.83% | 61.2% | 0% |
| CCS(=O)(=O)N(C)c1cccc(-c2ccnc3c(C(=O)c4ccc(F)cc4)cnn23)c1 [Example 53, N-methyl-N-{3-[3-(fluorobenzene-4-carbonyl)-pyrazolo[1,5-a]pyrimidin-7-yl]-phenyl}-ethanesulfonamide] | 94.89% | 89.8% | 1% |
| CCN(c1cccc(-c2ccnc3c(C(=O)c4ccc(OC)cc4)cnn23)c1)S(C)(=O)=O [Example 58, N-ethyl-N-{3-[3-(4-methoxybenzoyl)-pyrazolo[1,5-a]pyrimidin-7-yl]-phenyl}-methanesulfonamide] | 93.31% | 93.8% | 24% |
| Cc1ccc(C(=O)c2cnn3c(-c4cccc(N(C)S(C)(=O)=O)c4)ccnc23)cc1 [Example 63, N-methyl-N-{3-[3-(4-methylbenzoyl)-pyrazolo[1,5-a]pyrimidin-7-yl]-phenyl}-methanesulfonamide] | 95.32% | 91.3% | 0% |
| CCN(c1cccc(-c2ccnc3c(C(=O)c4ccc(C)cc4)cnn23)c1)S(C)(=O)=O [Example 64, N-ethyl-N-{3-[3-(4-methylbenzoyl)-pyrazolo[1,5-a]pyrimidin-7-yl]-phenyl}-methanesulfonamide] | 90.32% | 61.5% | 20.9% |
| C#CCN(c1cccc(-c2ccnc3c(C(=O)c4ccc(C)cc4)cnn23)c1)S(C)(=O)=O [Example 68, N-2-propynyl-N-{3-[3-(4-methylbenzoyl)-pyrazolo[1,5-a]pyrimidin-7-yl]-phenyl}-methanesulfonamide] | 87.78% | 92.7% | 31.6% |
| CN(c1cccc(-c2ccnc3c(C(=O)c4ccccc4)cnn23)c1)S(C)(=O)=O [Example 69, N-methyl-N-{3-[3-(benzoyl)-pyrazolo[1,5-a]pyrimidin-7-yl]-phenyl}-methanesulfonamide] | 96.90% | 99% | 36.7% |
| CCN(c1cccc(-c2ccnc3c(C(=O)c4ccccc4)cnn23)c1)S(C)(=O)=O [Example 70, N-ethyl-N-{3-[3-(benzoyl)-pyrazolo[1,5-a]pyrimidin-7-yl]-phenyl}-methanesulfonamide] | 94.54% | 99.9% | 63.4% |
| CCN(c1cccc(-c2ccnc3c(C(=O)c4ccccc4)cnn23)c1)S(=O)(=O)CC [Example 72, N-ethyl-N-{3-[3-(benzoyl)-pyrazolo[1,5-a]pyrimidin-7-yl]-phenyl}-ethanesulfonamide] | 93.78% | 98.6% | 44.9% |
| CN(c1cccc(-c2ccnc3c(C(=O)c4cccs4)cnn23)c1)S(=O)(=O)CC(F)(F)F [Example 76, N-methyl-N-{3-[3-(thiophene-2-carbonyl)-pyrazolo[1,5-a]pyrimidin-7-yl]-phenyl}-2,2,2-trifluoroethane-sulfonamide] | 78.36% | 41.7% | 0% |
